Reference: US20240164376A1, “SYNERGISTIC PLANT GROWTH STIMULANT COMPOSITIONS OF POTASSIUM MONO/DI-FORMATE WITH NITROGENOUS COMPOUNDS” (FERTIS INDIA PVT LTD, priority 2021, published 2024)

test system: paddy grains; experiment: Protein content in the paddy grains; format: in vivo

| SMILES | % Of Protein |
| --- | --- |
| CNC(=O)NC [Dimethyl urea] | 0.0081% |
| O=C(Nc1ccccc1)Nc1ccccc1 [Diphenyl urea] | 0.0089% |
| NC(=O)N(C=O)C=O [N,Ndiformyl urea (NN-DFU), N,Ndiformyl urea] | 0.0112% |
| O=CO.O=C[O-].[K+] [Potassium diformate] | 0.0093% |
| O=C[O-].[K+] [Potassium formate] | 0.0091% |
| NC(N)=O [Urea] | 0.0063% |
